Data on seven compounds can be found in publication PMC9457810, “Synthesis, Structure and Antileishmanial Evaluation of Endoperoxide–Pyrazole Hybrids” (Molecules, 2022).

Series [1] concerns L. major. Set-up: method as in PMID 30215271. The following applies: given in Figure 1A; cited from earlier work.
For series [2], the system named is L. tropica promastigotes. The series can be described thus: Leishmania promastigotes in vitro susceptibility (MTT), L. tropica. Type of series: cell-based. Particulars: Leishmania tropica, 48 h, at least three independent assays, read-out: Promastigotes Susceptibility IC50 ± SEM, L. tropica.
Series [3] relates to L. infantum promastigotes. The series can be described thus: Leishmania promastigotes in vitro susceptibility (MTT), L. infantum. It counts as cell-based. The following applies: Leishmania infantum, 48 h, at least three independent assays, read-out: Promastigotes Susceptibility IC50 ± SEM, L. infantum.
Series [4] in a line: In vitro cytotoxicity assessment in THP-1 cell line (MTT). Type of series: cell-based, human. The following applies: human, THP-1 cells, 48 h, MTT; at least three independent assays; read-out: Cytotoxicity CC50 ± SEM. The protocol: (§1) THP-1 (ATCC® TIB-202TM) human acute monocytic leukemic cell line was obtained from DSMZ, Germany and cultured in RPMI 1640 (Sigma, Darmstadt, Germany) supplemented with 10% (v/v) FBS, 1% (v/v) penicillin-streptomycin (Sigma), and L-glutamine 200 mM (Sigma) at 37 °C, 5% CO2.
(§2) THP-1 cell line was used to calculate the endoperoxide–pyrazole hybrids’ half-maximal cytotoxic concentration (CC50). THP-1 was plated at a final density of 5 × 10^5 cells/mL, in 96-well flat bottom culture plates (VWR), using six different concentrations of the compounds (OZ1, OZ2, T1, T2 and PIR: 800, 400, 200, 100, 50, 25 µM) and amphotericin B (10, 5, 2.5, 1.25, 0.625, 0.313 µM). A blank (RPMI medium alone) and an untreated control (parasites with RPMI medium plus 1% DMSO as vehicle solution) were also included. All the compounds were plated out in quadruplicate and incubated for 48 h at 37 °C ± 1 °C, 5% CO2.
(§3) Following the incubation period, 20 µL per well of MTT was added as described in Section 3.5.2. After absorbance readings, the CC50 values of each compound were determined with GraphPad Prism V 9.0 (Dotmatics, San Diego, CA, USA) as previously described. At least three independent assays were performed.

Series [5] has as its system intracellular amastigotes of L. infantum. The series can be described thus: Intracellular amastigotes susceptibility in THP-1-derived macrophages (infection index). It counts as cell-based, Leishmania infantum. The protocol:
The in vitro intracellular amastigote assay was performed using a THP1 cell line maintained in complete RPMI at 37 °C, 5% CO2. After 24 h differentiation of 5 × 10^5 cells/mL into macrophages in sterile 16-chamber LabTek slides (Thermo Scientific, Waltham, MA, USA) with 25 ng mL^−1 phorbol myristic acid (PMA, Sigma), cells were washed once with warm RPMI to remove non-differentiated and non-adherent cells and further infected with 5 × 10^6 promastigotes/mL in a 10:1 parasite–macrophage ratio for another 24 h. After this period, slides were gently washed once with warm RPMI to remove non-internalised promastigotes. The compounds 2o, 2t, OZ1•HCl, OZ1•MsOH, and OZ1•TsOH at concentrations ranging 400 µM to 50 µM were added, and the slides were further incubated at 37 °C, 5% CO2 for 72 h. After this period, cells were washed with warm PBS, fixed with methanol (Sigma) and stained with Giemsa 5% (Sigma). AmB was used as positive control, and macrophages cultivated in RPMI medium and DMSO (0.5% v/v) were used as negative control. The infection index was determined by multiplying the percentage of infected cells and the number of amastigotes per infected cell as previously described. The results represent the average of two experiments. The IC50 for each compound was calculated by fitting the data as a non-linear regression with variable slope using a dose–response inhibitory model in the GraphPad Prism V 8.0 (Dotmatics, San Diego, CA, USA) program.
Selectivity index (SI) was determined for each compound as the quotient between the cytotoxicity in cell lines (CC50) and the inhibitory concentration (IC50) (SI = CC50 in mammalian cells/IC50 L. infantum).

For series [6], the system named is L. tropica promastigotes. As to the kind of experiment: Morphometric analysis of L. tropica promastigotes (optical microscopy, Giemsa). It counts as cell-based, Leishmania tropica. The following applies: 48 h; OZ1 300 µM, OZ2 200 µM, amphotericin B 0.62 µM. The protocol:
To detect morphological alterations, at the end of the incubation period (48 h), 30 µL of the parasite’s suspension were collected from different treatment concentrations of each compound to prepare smears on glass slides, fixed with methanol, and stained with 5% (v/v) Giemsa (Sigma). Stained slides were examined with bright field in an inverted microscope (Eclipse 80i Nikon, Tokyo, Japan) with 1000× amplification, and images were captured with a Nikon DS-Ri1 camera. Image J (version 1.53k) was used to measure promastigote body and flagellum size of at least 30 parasite samples.
Data were expressed as mean ± standard error of the mean (SEM), and statistical analysis was performed with one-way ANOVA (Bonferoni’s multiple comparisons test) to determine whether differences between means relatively to untreated control were significant at different levels (p < 0.05, p < 0.01, p < 0.001).

The test system of series [7] is L. infantum. Also noted: method as in PMID 26014947. The following applies: given in Figure 1A; cited from earlier work.
Series [8] relates to L. donovani. Also noted: method as in PMID 31979089. Particulars: given in Figure 1A; cited from earlier work.
Series [9] concerns THP-1 cell line. As to the kind of experiment: In vitro cytotoxicity assessment in THP-1 cell line (MTT). Particulars: THP-1 cells, 48 h, MTT; at least three independent assays; read-out: Cytotoxicity CC50 ± SEM. Type of series: cell-based, human. The protocol: as §1, §2, §3
Series [10] can be described thus: Solubility in culture media (observation). It counts as physicochemical. The text has this:
Calculated intrinsic aqueous solubility (ClogS) values show similar values between trioxolanes (1.20–1.38) and tetraoxanes (1.18–1.21). However, the poor solubility of dispiro 4′’-substituted tetraoxanes may be associated to their structural symmetry. A decrease in molecular symmetry has been correlated to better physicochemical properties, such as absorption and solubility, resulting in enhanced systemic exposure to a drug. So it is anticipated that 3′’-substituted analogues could overcome this solubility issue. Therefore, future optimization to 3”-substituted analogues should be considered. Likewise, conversion of the compounds into water-soluble salts, as well as encapsulation of the endoperoxide structures in delivery systems such as liposomes, could represent alternative strategies to solve the solubility issue.

Structures can show the parent of a compound that is named as a salt. Where only a bound is given, the exact number is not on record here.

By melting point is commonly meant the temperature of the solid-liquid transition. For `Nc1ccnn1C(=O)C1CCC2(CC1)OOC1(OO2)C2CC3CC(C2)CC1C3` (stereo not shown) (as salt: tosylate) [T1•TsOH, (5-Amino-1H-pyrazol-1-yl) (dispiro[cyclohexane-1,3′-[1,2,4,5]tetraoxane-6′,2″-tricyclo-[3.3.1.1^3,7]-decan]-4-yl) methanone p-tosylate], the melting point is 156 °C (dec.).
The term IC50 denotes the concentration that gives 50% inhibition. On to `COc1ccc(-c2cn(-c3ccccc3)nc2/C=N/N=C/c2c(C)nn(-c3ccccc3)c2Cl)cc1` [3i], for which the IC50 in series [1] was 740 ± 100 nM.
What is called CC50 is the concentration giving 50% cytotoxicity. Consider `C[C@@H]1[C@H](O)[C@@H](C)/C=C/C=C/C=C/C=C/C=C/C=C/C=C/[C@H](O[C@@H]2O[C@H](C)[C@@H](O)[C@H](N)[C@@H]2O)C[C@@H]2O[C@](O)(C[C@@H](O)C[C@@H](O)[C@H](O)CC[C@@H](O)C[C@@H](O)CC(=O)O[C@H]1C)C[C@H](O)[C@H]2C(=O)O` [AmB, Amphotericin B, reference compound], for which the IC50 in [2] was 300 ± 100 nM; in series [3], 200 ± 10 nM; in [5] (Leishmania infantum, Macrophage, 72 h, THP-1-derived macrophages, 72 h, infection index, two independent assays, read-out: Intracellular Amastigote Susceptibility IC50 ± SEM, L. infantum), 80 ± 50 nM. Further, the half-maximal cytotoxic concentration (CC50) at 48 h in series [4] came to 23 ± 3 µM. The “SI (selectivity index)” value in series [5] (SI for amastigote forms = CC50 THP-1 / IC50 L. infantum) stood at 290. Also, the “Body size of L. tropica promastigotes” value in series [6] was found to be 6.463 ± 1.874 µm.
`NCC1CCC2(CC1)OOC1(O2)C2CC3CC(C2)CC1C3` (stereo not shown) [LC95]: the 50% inhibitory concentration (IC50) in [7] was 9.35 ± 3.64 µM.
As for `O=C1CCC2(CC1)OOC1(OO2)C2CC3CC(C2)CC1C3` [LC140], the IC50 in series [8] is 2520 ± 650 nM.
As for `Nc1ccnn1C(=O)C1CCC2(CC1)OOC1(OO2)C2CC3CC(C2)CC1C3` (stereo not shown) [T1, (5-Amino-1H-pyrazol-1-yl)(dispiro[cyclohexane-1,3′-[1,2,4,5]tetraoxane-6′,2″-tricyclo-[3.3.1.1^3,7]-decan]-4-yl)methanone], the half-maximal inhibitory concentration (IC50) in series [2] and in series [3] was more than 400000 nM in each case. In addition, the cytotoxic concentration (CC50) in [9] was more than 800 µM. For the same compound, the “Solubility in M199 and RPMI medium” value in series [10] is on record as “low solubility”.
As to `Nc1ccn(C(=O)C2CCC3(CC2)OOC2(OO3)C3CC4CC(C3)CC2C4)n1` (stereo not shown) [T2, (3-Amino-1H-pyrazol-1-yl)(dispiro[cyclohexane-1,3′-[1,2,4,5]tetraoxane-6′,2″-tricyclo[3.3.1.1^3,7]decan]-4-yl)methanone], the CC50 at 48 h in series [4] is more than 800 µM. In [10], the “Solubility in M199 and RPMI medium” value was “low solubility”.
